The values that follow are results of earlier work, collected in patent US6511676B1 (priority 1999, dated 2003).

Data set [1] relates to epithelial ovarian carcinoma. Conditions: oral, 61 patients with cis- or carboplatin resistance.
The subject of another data set is testicular cancers. Conditions: in vivo.

As to `CN(C)c1nc(N(C)C)nc(N(C)C)n1` [hexamethylmelamine], in data set [1], the objective response rate is 14%.
In the case of `N.N.[Cl][Pt][Cl]` [cisplatin, Cis-diamminedichloroplatinum(II)], the testicular cancers cured result in the data set on testicular cancers is recorded as “More than 90%”.
